The results in this text go back to patent US5070139A, “2,4-disubstituted 1,3-dioxolanes” (J. Uriach & Cia. S.A., priority 1987, dated 1991).

For test [1], the system named is platelet aggregation induced by PAF in rabbit platelets. Briefly: Inhibition of platelet aggregation induced by PAF (Test 1). The test is classed as cell-based, male New Zealand albino rabbits. Particulars: concentration needed to inhibit platelet aggregation by 50%, PAF 16 nM final, rabbit platelet rich plasma. The method, then:
Test 1: Inhibition of Platelet Aggregation Induced by PAF.
The blood is obtained by cardiac puncture of male New Zealand albino rabbits (between 2 and 2.5 Kg of weight) and coagulation is prevented by adding 1 part of 3.16% sodium citrate dihydrate in 9 parts of blood. The platelet rich plasma (PRP) is prepared by blood centrifugation at 250 xg for 10 min. at 4° C. and it is diluted with platelet poor plasma (PPP) obtained by additional centrifugation at […] for 10 min. The amount of platelets is adjusted to […]. The platelet aggregation induced by PAF (C18, prepared in our laboratory) (16 nM, final) is determined by the Born nephelometric technique (J. Physiol., 1962, 162, 67) using a aggregometer Chronolog 500. The activities of the inhibitors are expressed as IC50, that is to say the concentration of the drug needed to inhibit the platelet aggregation in a 50%.

Test [2] concerns hypotension induced by PAF. Description: Inhibition of the hypotensive effect induced by PAF in normotense rats (Test 2). The note with it: i.v., 3 min before PAF (0.5 mg/Kg, i.v.), anesthetized rats. Format: in vivo, Male Sprague Dawley rats. The method, then: Test 2--Inhibition of the Hypotensive Effect Induced by PAF in normotense Rats.
(§1) Male Sprague Dawley rats, of 180-220 g of weight, anesthetized with sodium pentobarbital (50 mg/Kg, i.p. 1 mL/100 g) have been used. In order to measure the average arterial pressure, a polyethylene catheter is introduced into the carotide artery. The arterial pressure is recorded with the help of a transducer connected with a R611 Beckman polygraph. The tested compounds are administrated through the femoral vein 3 min. Before the injection of PAF (0.5 mg/Kg, i.v.).

In test [3] the test system is hypotension induced by PAF. Description: Reversion of the hypotensive effect induced by PAF in normotense rats (Test 3). Format: in vivo, Male Sprague Dawley rats. The note with it: Rattus norvegicus, iv, 1 min; i.v., 1 min after the injection of PAF; read-out: ID50, dose required to reduce in a 50% the time of recovery of the basal blood pressure. The method, then: as §1
Test 3--Reversion of the Hypotensive Effect Induced by PAF in Normotense Rats
The experimental design is similar to that of test 2, except in that the compound to be tested is given by intravenous injection 1 min. After the injection of PAF. In the controls the blood pressure recovers 80% of the basal level 6.2 min. after the injection of PAF. The effect of the tested compounds is expressed as the dose required to reduce in a 50% the time of recovery of the basal blood pressure (ID50).

[4] abbreviates: Oryctolagus cuniculus, Platelet.

Molecules are shown by their SMILES. Where a name gives a salt, the structure may show the parent alone.

`CCCCCCCCCCCCCCCCCC1OCC(COCCCC[n+]2ccccc2)O1` (racemic) [Compound 1, (±)-cis, trans-1[4-[(2-heptadecyl-1,3-dioxolane-4-yl)methoxy]butyl]piridinium 4-methylbenzenesulphonate]: the IC50 in test [1] (setting [4]) stood at 5.5 µM. Also, in test [2] (compound 5 mg/Kg), the “% Inhibition of the hypotension induced by PAF” value (from here on “% Inhibition”) is 24%.

For the compound `CCCCCCCCCCCCCCCCCC1OCC(COCCCC[n+]2ccsc2)O1` (racemic) [Compound 2, (±)-cis, trans-3-[4-[(2-heptadecyl-1,3-dioxolane-4-yl)methoxy]butyl]thiazolium 4-methylbenzenesulfonate], in test [1] (setting [4]), half-maximal inhibition (IC50) required 6 µM.

Turning to `CCCCCCCCCCCCCCCCCC1OCC(COCCCC[n+]2ccsc2)O1` (racemic) [Compound 5, (±)-cis, trans-3-[4-[(2-heptadecyl-1,3-dioxolane-4-yl)methoxy]butyl)thiazolium iodide], in test [1], 5 µM corresponded to half-maximal inhibition (IC50).

In turn, `CCCCCCCCCCCCCCCCCC1OCC(COCCCCCC[n+]2ccccc2)O1` (racemic) [Compound 6, (±)-cis, trans-1-[6-[(2-heptadecyl-1,3-dioxolane-4-yl)methoxy]hexyl]pyridinium 4-methylbenzenesulfonate] gave a 50% inhibitory concentration (IC50) in test [1] (setting [4]) of 3.3 µM. Moreover, the “% Inhibition” value in test [2] (compound 5 mg/Kg) amounted to 42%.

In test [1] (setting [4]), `CCCCCCCCCCCCCCCCCC1OCC(COCCCCCC[n+]2cscc2C)O1` (racemic) [Compound 7, (±)-cis, trans-3-[6-[(2-heptadecyl-1,3-dioxolane-4-yl)methoxy]hexyl]-4-methylthiazolium 4-methylbenzenesulfonate] showed an IC50 of 3.1 µM. This lies in the single-digit micromolar range.

For the compound `CCCCCCCCCCCCCCCCCC1OCC(COCCCCCC[n+]2ccsc2)O1` (racemic) [Compound 8, (±)-cis, trans-3-[6-[(2-heptadecyl-1,3-dioxolane-4-yl)methoxy]hexyl]thiazolium 4-methylbenzenesulfonate], 1.4 µM corresponded to half-maximal inhibition in test [1] (setting [4]) (IC50). For the same compound, the ED50 in test [3] came to 0.3 mg/kg. Further, the “% Inhibition” value is 46% in test [2] (compound 1.25 mg/Kg), 75% in test [2] (compound 2.5 mg/Kg) and 88% in test [2] (compound 5 mg/Kg).

As for `CCCCCCCCCCCCCCCCCC1OCC(COCCCCCC[N+]2(C)CCOCC2)O1` (racemic) [Compound 9, (±)-cis, trans-4-[6-[(2-heptadecyl-1,3-dioxolane-4-yl)methoxy]hexyl]-4-methylmorpholinium 4-methylbenzenesulfonate], the IC50 in test [1] (setting [4]) came to 18 µM.

Compound `CCCCCCCCCCCCCCCCCC1OCC(COCCCCCC[N+](C)(C)C)O1` (racemic) [Compound 10, (±)-cis, trans-6-[(2-heptadecyl-1,3-dioxolane-4-yl)methoxy]-N,N,N-trimethyl-1-hexanaminium 4-methylbenzenesulfonate] registered an IC50 in test [1] (setting [4]) of 5.5 µM.

Regarding `CCCCCCCCCCCCCCCCCC1OCC(COCCCCCC[n+]2cccc3ccccc32)O1` (racemic) [Compound 11, (±)-cis, trans-1-[6-(2-heptadecyl-1,3-dioxolane-4-yl)methoxy]hexyl]quinolinium 4-methylbenzenesulfonate], inhibition in test [1] (setting [4]) was half-maximal at 3.9 µM (IC50).

`CCCCCCCCCCCCCCCCCC1OCC(COCCCCCC[n+]2csc3ccccc32)O1` (racemic) [Compound 12, (±)-cis, trans-3-[6-[(2-heptadecyl-1,3-dioxolane-4-yl)methoxy]hexyl]benzothiazolium4-methylbenzenesulfonate]: the IC50 in test [1] (setting [4]) was 16 µM.

As to `CCCCCCCCCCCCCCCCCC1OCC(COCCCCCCCC[n+]2ccccc2)O1` (racemic) [Compound 20, (±)-cis, trans-1-[8-[(2-heptadecyl-1,3-dioxolane-4-yl)methoxy]octyl]pyridinium 4-methylbenzenesulfonate], the IC50 in test [1] (setting [4]) turned out to be 14 µM.

`CCCCCCCCCCCCCCCCCC1OCC(COCCCCCCCC[n+]2ccsc2)O1` (racemic) [Compound 22, (±)-cis, trans-3-[8-[(2-heptadecyl-1,3-dioxolane-4-yl)methoxy]octyl]thiazolium 4-methylbenzenesulfonate] yielded an IC50 in test [1] (setting [4]) of 5.1 µM.

Turning to `CCCCCCCCCCCCCCCCCC1OCC(COC(=O)CCCCC[n+]2ccccc2)O1` (racemic) [Compound 24, (±)-cis, trans-1-[6-[(2-heptadecyl-1,3-dioxolane-4-yl)methoxy]-6-oxohexyl]pyridinium 4-methylbenzenesulfonate], in test [1] (setting [4]), the IC50 was found to be 2.6 µM. For the same compound, the figures for the “% Inhibition” value in test [2] (compound 2.5 mg/Kg) and in test [2] (compound 5 mg/Kg) were 58% and 72%, respectively.

Consider `CCCCCCCCCCCCCCCCCC1OCC(COC(=O)CCCCC[n+]2cscc2C)O1` (racemic) [Compound 26, (±)-cis, trans-3-[6-[(2-heptadecyl-1,3-dioxolane-4-yl)methoxy]-6-oxohexyl]-4-methylthiazolium 4-methylbenzenesulfonate], for which it took 2.5 µM to reach half-maximal inhibition in test [1] (setting [4]) (IC50).

Compound `CCCCCCCCCCCCCCCCCC1OCC(COC(=O)CCCCC[n+]2ccsc2)O1` (racemic) [Compound 27, (±)-cis, trans-3-[6-[(2-heptadecyl-1,3-dioxolane-4-yl)methoxy]-6-oxohexyl]thiazolium 4-methylbenzenesulfonate] had an IC50 in test [1] (setting [4]) of 1.3 µM. For the same compound, the ED50 in test [3] was 0.16 mg/kg. Moreover, the “% Inhibition” value in test [2] (compound 0.63 mg/Kg) was found to be 28%; in test [2] (compound 1.25 mg/Kg), 75%; in test [2] (compound 5 mg/Kg), 100%.

Turning to `CCCCCCCCCCCCCCCCCC1OCC(COC(=O)CCCCC[N+]2(C)CCOCC2)O1` (racemic) [Compound 30, (±)-cis, trans-4-[6-[(2-heptadecyl-1,3-dioxolane-4-yl)methoxy]-6-oxohexyl]-4-methylmorpholinium 4-methylbenzenesulfonate], in test [1] (setting [4]), it took 21 µM to reach half-maximal inhibition (IC50).

Take `CCCCCCCCCCCCCCCCCC1OCC(COC(=O)CCCCC[N+](C)(C)C)O1` (racemic) [Compound 31, (±)-cis, trans-6-[(2-heptadecyl-1,3-dioxolane-4-yl)methoxy]-6-oxo-N,N,N-trimethyl-1-hexanaminium 4-methylbenzenesulfonate]: it took 7.8 µM to reach half-maximal inhibition in test [1] (setting [4]) (IC50).

`CCCCCCCCCCCCCCCCCC1OCC(COC(=O)CCCCC[n+]2cccc3ccccc32)O1` (racemic) [Compound 32, (±)-cis, trans-1-[6-[(2-heptadecyl-1,3-dioxolane-4-yl)methoxy]-6-oxohexyl]quinolinium 4-methylbenzenesulfonate] came in with an IC50 in test [1] (setting [4]) of 2.5 µM. Further, in test [2] (compound 5 mg/Kg), the “% Inhibition” value came to 80%.

For `CCCCCCCCCCCCCCCCCC1OCC(COP(=O)([O-])OCC[N+](C)(C)C)O1` (racemic) [Compound 47, (±)-cis, trans-2-[[[(2-heptadecyl-1,3-dioxolane-4-yl)methoxy]hydroxyphosphinyl]oxy]-N,N,N-trimethylethanaminium hydroxide, inner salt], in test [1] (setting [4]), the IC50 came out at 180 µM.

On to `CCCCCCCCCCCCCCCCCC1OCC(COP(=O)([O-])OCC[n+]2ccccc2)O1` (racemic) [Compound 48, (±)-cis, trans-1-[2-[[[(2-heptadecyl-1,3-dioxolane-4yl)methoxy]hydroxyphosphinyl]oxy]ethyl]pyridinium hydroxide, inner salt], for which, in test [1] (setting [4]), inhibition was half-maximal at 180 µM (IC50).
